Reference: the NIST ThermoML archive (doi:10.1016/j.fluid.2015.05.016)
± gives the expanded uncertainty stated by the source. Values belong to the molecule of their own block, whether it stands above or below them.

Tests used:
[1] = 298.15 K; 101.33 kPa; Liquid; Vibrating tube method
[2] = molar heat capacity at constant pressure; details: 298.15 K; 101.33 kPa; Liquid; Large sample (1 g) DSC
[3] = molar heat capacity at constant pressure; xn = mol fraction of the nth substance listed; details: 298.15 K, 100 kPa, Liquid, Large sample (1 g) DSC
[4] = xn = mol fraction of the nth substance listed; details: 298.15 K, 100 kPa, Liquid, Vibrating tube method

mass density [1]: 966.678 ± 3.2 kg/m3
molar heat capacity at constant pressure [2]: 266.29 ± 4.6 J/K/mol
SMILES: CCCC(O)CO (stereo not drawn) [1,2-pentanediol]

molar heat capacity at constant pressure ([3]; x1 = 0.0743): 89.47 ± 1.4 J/K/mol
molar heat capacity at constant pressure ([3]; x1 = 0.2305): 106.48 ± 1.6 J/K/mol
molar heat capacity at constant pressure ([3]; x1 = 0.3354): 118.08 ± 1.8 J/K/mol
molar heat capacity at constant pressure ([3]; x1 = 0.4104): 126.35 ± 2 J/K/mol
molar heat capacity at constant pressure ([3]; x1 = 0.51): 137.4 ± 2.1 J/K/mol
molar heat capacity at constant pressure ([3]; x1 = 0.6498): 152.77 ± 2.4 J/K/mol
molar heat capacity at constant pressure ([3]; x1 = 0.7273): 161.34 ± 2.5 J/K/mol
molar heat capacity at constant pressure ([3]; x1 = 0.7821): 167.69 ± 2.6 J/K/mol
molar heat capacity at constant pressure ([3]; x1 = 0.8985): 180.45 ± 2.8 J/K/mol
molar heat capacity at constant pressure ([3]; x1 = 1): 191.71 ± 3 J/K/mol
SMILES: CC(O)CO (stereo not drawn) [1,2-propanediol] + CO

mass density [1]: 786.585 ± 0.24 kg/m3
molar heat capacity at constant pressure [2]: 81.37 ± 1.4 J/K/mol
SMILES: CO [methanol]

molar heat capacity at constant pressure ([3]; x2 = 0): 81.37 ± 1.3 J/K/mol
SMILES: CO [methanol] + CC(O)CO

mass density [1]: 998.505 ± 0.068 kg/m3
SMILES: CCC(O)CO (stereo not drawn) [1,2-butanediol]

molar heat capacity at constant pressure ([3]; x2 = 0): 81.37 ± 1.3 J/K/mol
mass density ([4]; x2 = 0): 786.585 ± 0.24 kg/m3
SMILES: CO [methanol] + CCCC(O)CO

molar heat capacity at constant pressure ([3]; x1 = 0.073): 94.77 ± 1.5 J/K/mol
molar heat capacity at constant pressure ([3]; x1 = 0.1773): 114.15 ± 1.8 J/K/mol
molar heat capacity at constant pressure ([3]; x1 = 0.31): 138.7 ± 2.1 J/K/mol
molar heat capacity at constant pressure ([3]; x1 = 0.3868): 152.56 ± 2.4 J/K/mol
molar heat capacity at constant pressure ([3]; x1 = 0.5238): 178.04 ± 2.8 J/K/mol
molar heat capacity at constant pressure ([3]; x1 = 0.6142): 194.86 ± 3 J/K/mol
molar heat capacity at constant pressure ([3]; x1 = 0.7047): 211.81 ± 3.3 J/K/mol
molar heat capacity at constant pressure ([3]; x1 = 0.8127): 231.91 ± 3.6 J/K/mol
molar heat capacity at constant pressure ([3]; x1 = 0.914): 250.63 ± 3.9 J/K/mol
molar heat capacity at constant pressure ([3]; x1 = 1): 266.29 ± 4.1 J/K/mol
mass density ([4]; x1 = 0.073): 832.04 ± 0.31 kg/m3
mass density ([4]; x1 = 0.31): 886.031 ± 0.67 kg/m3
mass density ([4]; x1 = 0.5238): 929.073 ± 1.2 kg/m3
mass density ([4]; x1 = 0.6142): 931.181 ± 1.5 kg/m3
mass density ([4]; x1 = 0.7047): 946.883 ± 1.8 kg/m3
mass density ([4]; x1 = 0.8127): 950.977 ± 2.3 kg/m3
mass density ([4]; x1 = 0.914): 961.834 ± 2.8 kg/m3
mass density ([4]; x1 = 1): 966.678 ± 3.2 kg/m3
SMILES: CCCC(O)CO (stereo not drawn) [1,2-pentanediol] + CO

mass density [1]: 1032.55 ± 0.11 kg/m3
molar heat capacity at constant pressure [2]: 191.71 ± 3.2 J/K/mol
SMILES: CC(O)CO (stereo not drawn) [1,2-propanediol]
